Laboratory results: patent US12577702B2, “Oligonucleotide encoded chemical libraries, related systems, devices, and methods for detecting, analyzing, quantifying, and testing biologics/genetics” (Plexium, Inc., priority 2020, dated 2026)

Molecular target: Cathepsin-D protease (Homo sapiens, UniProt P07339)
Test: Protease inhibition assay in picowells with compound photo-released from beads
Assay type: biochemical
Conditions: compound released from 10 μm TentaGel bead by UV (365 nm, 77 J/cm^2) to approximately 13 μM; incubated 30 min, 37° C.; λex=480 nm, λem=525 nm
From the text: Reagents were placed into wells at 4 degrees C. Ultraviolet light at 365 nm was used to cleave the fluorophore from the bead, thereby releasing the fluorophore and separating it from the quencher. […] This setup with bead-bound pepstatin-A and the aspartyl protease can serve as a positive control.
This bead population was introduced into picowells, then buffer exchanged into a protease inhibition assay, including Cathepsin-D protease and Peptide Q-Fluor substrate (λex=480 nm, λem=525 nm). Wells were encapsulated by air, and entire slide exposed to UV (365 nm, 77 J/cm^2), cleaving the photolabile linker, releasing the compound to reach approximately 13 μM. The flowcell was incubated (30 min, 37° C.).
Greater fluorescence means that the enzyme is more catalytically active. […] Images were captured following UV release and Cathepsin-D assay incubation (λex=480 nm, λem=525 nm). Wells containing positive control beads could be identified spectrally by Cy5 fluorophore (λex=645 nm, λem=665 nm, orange false color).

Chain of Cathepsin-D protease (P07339 65-412): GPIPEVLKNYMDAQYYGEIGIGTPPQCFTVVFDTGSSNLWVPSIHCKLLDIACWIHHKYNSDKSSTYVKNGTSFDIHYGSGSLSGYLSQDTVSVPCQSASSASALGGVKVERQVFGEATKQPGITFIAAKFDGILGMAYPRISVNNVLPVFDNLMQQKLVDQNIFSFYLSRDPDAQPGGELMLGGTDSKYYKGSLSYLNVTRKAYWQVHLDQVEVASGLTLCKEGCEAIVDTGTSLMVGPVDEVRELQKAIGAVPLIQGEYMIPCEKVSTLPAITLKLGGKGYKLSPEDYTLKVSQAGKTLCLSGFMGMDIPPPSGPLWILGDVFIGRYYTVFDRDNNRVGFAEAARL

CC(C)[C@H](NC(=O)OCC1c2ccccc2-c2ccccc21)C(=O)O [negative control beads, Fmoc-Valine]
Cathepsin-D inhibition (fluorescence of Peptide Q-Fluor substrate in well): no Cathepsin-D inhibition
